Columns and labels:
Type in all cases: in vivo
Alopecurus myosuroides [1] = test: Herbicidal pre-emergence action; conditions: pre-emergence method, 80 g/ha, greenhouse, visual assessment vs untreated controls
How it was run: (§1)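 Visual percent effect relative to untreated controls (0% = like control, 100% = dead) assessed three weeks after treatment in the greenhouse. Compounds, as wettable powders in water (600 l/ha, 0.2% wetting agent), were sprayed at different amounts onto covering soil over seeds sown in sandy loam.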

Echinocloa crus-galli [2] = test: Herbicidal pre-emergence action; conditions: pre-emergence method, 80 g/ha, greenhouse, visual assessment vs untreated controls
How it was run: as §1

Lolium multiflorum [3] = test: Herbicidal pre-emergence action; conditions: pre-emergence method, 80 g/ha, greenhouse, visual assessment vs untreated controls
How it was run: as §1

Setaria viridis [4] = test: Herbicidal pre-emergence action; conditions: pre-emergence method, 80 g/ha, greenhouse, visual assessment vs untreated controls
How it was run: as §1

Alopecurus myosuroides [5] = test: Herbicidal post-emergence action; conditions: post-emergence method, 80 g/ha
How it was run: (§2)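 One-leaf-stage greenhouse plants sprayed with WP at graded amounts (600 l/ha, 0.2% wetting agent); ~3 wk later, visual % effect rated vs untreated controls, 100% = dead, 0% = like control.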

Echinocloa crus-galli [6] = test: Herbicidal post-emergence action; conditions: post-emergence method, 80 g/ha
How it was run: as §2

Lolium multiflorum [7] = test: Herbicidal post-emergence action; conditions: post-emergence method, 80 g/ha
How it was run: as §2

Setaria viridis [8] = test: Herbicidal post-emergence action; conditions: post-emergence method, 80 g/ha
How it was run: as §2

[9] = system: monocotylidonous and dicotylidonous weed and crop plants; test: Herbicidal pre-emergence action (other test plants); conditions: pre-emergence method, 80 g/ha, greenhouse, visual assessment vs untreated controls
How it was run: as §1

[10] = system: monocotylidonous and dicotylidonous weed and crop plants; test: Herbicidal post-emergence action (other test plants); conditions: post-emergence method, 80 g/ha
How it was run: as §2

Row | SMILES | herbicidal effect ALOMY (Alopecurus myosuroides [1]) | herbicidal effect ECHCG (Echinocloa crus-galli [2]) | herbicidal effect LOLMU (Lolium multiflorum [3]) | herbicidal effect SETVI (Setaria viridis [4]) | herbicidal effect against ALOMY (Alopecurus myosuroides) (Alopecurus myosuroides [5]) | herbicidal effect against ECHCG (Echinochloa crus-galli) (Echinocloa crus-galli [6]) | herbicidal effect against LOLMU (Lolium multiflorum) (Lolium multiflorum [7]) | herbicidal effect against SETVI (Setaria viridis) (Setaria viridis [8]) | herbicidal effect AVEFA [9] | herbicidal effect against AVEFA (Avena fatua) [10]
1 | CCOC(=O)OC1=C(c2c(C)cc(C)cc2C)C(=O)C2CC3(CC12)OCCO3 (stereo not drawn) [I-c-44] | 50% | 0% | 100% | 0% | 40% | 100% | 100% | 90% | 50% | 80%
2 | COC(=O)OC1=C(c2c(C)cc(C)cc2C)C(=O)C2CC3(COC(C)(C)O3)CC12 (mixture of isomers) [I-c-56] | 90% | 20% | 90% | 0% | 90% | 80% | 80% | 40% | 20% | 20%
3 | C#CC(C)ON=C1C[C@@H]2C(O)=C(c3c(CC)cc(C)cc3CC)C(=O)[C@@H]2C1 (relative stereo) [I-a-32] | 90% | 40% | 100% | 20% | 80% | 100% | 100% | 20% | 60% | 0%
4 | C=C1CC2C(=O)C(c3c(C)cc(C)cc3OC)=C(OC(=O)OCC)C2C1 (racemic) [I-c-61] | 70% | 90% | 50% | 90% | 40% | 90% | 70% | 90% | 60% | 0%
5 | CCOC1COC2(CC3C(=O)C(c4c(CC)cc(C)cc4CC)=C(OC(=O)C(C)C)C3C2)OC1 (stereo not drawn) [I-b-16] | 100% | 100% | 100% | 100% | 100% | 100% | 100% | 100% | 80% | 90%
6 | CCc1cc(C)cc(CC)c1C1=C(OC(=O)COC)C2CC3(CC2C1=O)OCCCO3 (stereo not drawn) [I-b-28] | 90% | 100% | 100% | 70% | 100% | 100% | 100% | 100% | 50% | 100%
7 | CCc1cc(C)cc(CC)c1C1=C(O)[C@H]2CC3(C[C@H]2C1=O)OCC(OCc1ccccc1)CO3 (relative stereo) [I-a-27] | 90% | 100% | 100% | 90% | 100% | 100% | 100% | 90% | 80% | 100%
8 | CCc1cc(C)cc(CC)c1C1=C(OC(=O)C(C)(C)CC)C2CC3(CC2C1=O)OCCCO3 (stereo not drawn) [I-b-30] | 100% | 100% | 100% | 90% | 20% | 100% | 100% | 90% | 70% | 100%
9 | CCc1cc(C)cc(CC)c1C1=C(OC(C)=O)C2CC3(CC2C1=O)OCCCO3 (stereo not drawn) [I-b-23] | 90% | 100% | 100% | 50% | 100% | 100% | 100% | 100% | 70% | 100%

Source: US8367873B2, “Phenyl-substituted bicyclooctane-1,3-dione derivatives” (Bayer Cropscience AG, priority 2008, dated 2013)
